Consider seven compounds from PubChem BioAssay (NCI).

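Exposure lasted 48 hours, with cells grown in 96-well plates and compounds tested at five concentrations. TGI: concentration producing complete growth inhibition.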

Some test systems named below: BT-549 breast; RXF 393 renal; UACC-62 melanoma; 786-0 renal; MCF7 breast; K-562 leukemia; IGROV1 ovarian; NCI-H23 lung; NCI-H226 lung; UACC-257 melanoma; ACHN renal; HCT-15 colon; OVCAR-4 ovarian; UO-31 renal; CAKI-1 renal; M14 melanoma; A549 NSCLC; CCRF-CEM leukemia.
Common to all, as to assay: growth of human tumour cells (NCI), 48 h

On to `COc1nc(C)nc2sc3c(c12)CCCC3`, for which the TGI in the assay on BT-549 breast, in the assay on RXF 393 renal, in the assay with UACC-62 melanoma, in the assay on 786-0 renal, in the assay with MCF7 breast and in the assay on K-562 leukemia was greater than 100 µM throughout. In addition, the TGI with IGROV1 ovarian, in the assay on NCI-H23 lung, in the assay on NCI-H226 lung, in the assay on UACC-257 melanoma, with ACHN renal and in the assay with HCT-15 colon was greater than 100 µM each time. The TGI in the assay with OVCAR-4 ovarian, in the assay on UO-31 renal and in the assay with CAKI-1 renal was greater than 100 µM in each case.
Take `ClC1(Cl)C(c2ccccc2)C1c1ccccc1` (stereo not drawn): the TGI was 77.4 µM with BT-549 breast; 37.8 µM in the assay with RXF 393 renal; greater than 100 µM with UACC-62 melanoma; greater than 100 µM in the assay on 786-0 renal; greater than 100 µM in the assay on MCF7 breast; greater than 100 µM in the assay on K-562 leukemia. The TGI with NCI-H23 lung was 76.8 µM; in the assay with M14 melanoma it was 90.7 µM; with A549 NSCLC it was greater than 100 µM; in the assay with NCI-H226 lung it was 33.9 µM; in the assay on UACC-257 melanoma, greater than 100 µM; in the assay with ACHN renal, 89.7 µM. For the same compound, the TGI in the assay with HCT-15 colon is greater than 100 µM; in the assay on OVCAR-4 ovarian, greater than 100 µM; in the assay with UO-31 renal it was greater than 100 µM; in the assay on CAKI-1 renal, 75.9 µM.
Consider `O=C(O)c1ccc(P(=O)(O)c2ccc(C(=O)O)cc2Br)c(Br)c1`, for which the TGI in the assay on BT-549 breast, in the assay on RXF 393 renal, with UACC-62 melanoma, in the assay with 786-0 renal, in the assay on MCF7 breast and in the assay on K-562 leukemia was greater than 100 µM each time. Moreover, the TGI in the assay on IGROV1 ovarian, with NCI-H23 lung, in the assay on M14 melanoma, with A549 NSCLC, with NCI-H226 lung and in the assay on UACC-257 melanoma was greater than 100 µM in each case. Also, the TGI in the assay on HCT-15 colon, with UO-31 renal and with CAKI-1 renal was greater than 100 µM throughout.
On to `COC(=O)Nc1nc2ccc(S(=O)(=O)NC(CC(C)C)C(=O)OC)cc2[nH]1` (stereo not drawn), for which the TGI is greater than 100 µM in the assay with BT-549 breast; greater than 100 µM in the assay with CCRF-CEM leukemia; 15.9 µM in the assay with RXF 393 renal; greater than 100 µM with UACC-62 melanoma; greater than 100 µM in the assay on 786-0 renal; greater than 100 µM with MCF7 breast. The TGI was greater than 100 µM in the assay with K-562 leukemia; 6.45 µM in the assay with IGROV1 ovarian; greater than 100 µM in the assay with NCI-H23 lung; greater than 100 µM in the assay on A549 NSCLC; greater than 100 µM with NCI-H226 lung; greater than 100 µM in the assay on ACHN renal. Besides, the TGI in the assay with HCT-15 colon, in the assay with OVCAR-4 ovarian, with UO-31 renal and with CAKI-1 renal was greater than 100 µM each time.
For `c1ccc2c(C3CCN(CCN4CCOCC4)C3)c[nH]c2c1` (stereo not drawn), the TGI in the assay on BT-549 breast, with CCRF-CEM leukemia, with RXF 393 renal, in the assay on UACC-62 melanoma, in the assay with 786-0 renal and with MCF7 breast was greater than 100 µM in each case. In addition, the TGI with K-562 leukemia, in the assay on IGROV1 ovarian, in the assay on NCI-H23 lung, with M14 melanoma, in the assay with A549 NSCLC and in the assay with UACC-257 melanoma was greater than 100 µM throughout. The TGI in the assay with ACHN renal, in the assay with HCT-15 colon, in the assay on OVCAR-4 ovarian, in the assay with UO-31 renal and in the assay with CAKI-1 renal was greater than 100 µM throughout.
Take `CNc1c2cccc(C)c2nc2c(C(=O)NCCN(C)C)cccc12`: the TGI with BT-549 breast was 2.8 µM; in the assay with RXF 393 renal it was 0.413 µM; in the assay on UACC-62 melanoma it was 0.402 µM; in the assay on 786-0 renal it was 1.47 µM; in the assay with MCF7 breast, 0.96 µM; in the assay with K-562 leukemia, greater than 100 µM. The TGI in the assay with IGROV1 ovarian was determined as 10.6 µM; in the assay on NCI-H23 lung, 0.286 µM; in the assay on M14 melanoma, 0.887 µM; in the assay with A549 NSCLC it was 0.331 µM; with NCI-H226 lung it was 0.847 µM; in the assay on UACC-257 melanoma, 1.24 µM. Also, the TGI with ACHN renal is 0.723 µM; with HCT-15 colon, 0.634 µM; in the assay with OVCAR-4 ovarian, 0.114 µM; in the assay on UO-31 renal, 2.49 µM; with CAKI-1 renal, 0.23 µM.
Consider `N#C/C(=C\c1cn(Cc2ccccc2)c2ccccc12)c1nn(-c2ccccc2)c(N)c1C#N`, for which the TGI in the assay on BT-549 breast was 58.3 µM; in the assay with CCRF-CEM leukemia, 47.8 µM; with RXF 393 renal, 19.2 µM; in the assay on UACC-62 melanoma it was 23.6 µM; with 786-0 renal, 21.3 µM; in the assay with MCF7 breast, greater than 100 µM. Further, the TGI is greater than 100 µM in the assay with K-562 leukemia; 30.7 µM in the assay on IGROV1 ovarian; 29.7 µM in the assay on NCI-H23 lung; 46.1 µM with M14 melanoma; 24.6 µM with A549 NSCLC; 50 µM in the assay on UACC-257 melanoma. The TGI was 75.6 µM in the assay with ACHN renal; greater than 100 µM in the assay with HCT-15 colon; 13.7 µM in the assay on OVCAR-4 ovarian; 26.5 µM with UO-31 renal; 47 µM in the assay with CAKI-1 renal.
